Read-outs that look alike come from different tables or passages of the source.
Key:
[1] = test system: T47D pAKT (S473), PI3Kα H1047R mutation present; assay: HTRF pAKT-T47D;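 also: assay medium was RPMI with 10% FBS and 0.2 units/ml bovine insulin, without phenol red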
[2] = target: T1, PI3Kα H1047R protein (p110-α H1047R complexed with truncated p85-α) (Homo sapiens, UniProt P42336, H1047R); assay: Surface Plasmon Resonance (SPR) binding, wortmannin-blocked protein; conditions: Biacore 8K, ATP site blocked with 1 μM wortmannin, 25° C.
T1 construct: The protein contained a full-length p110-α subunit harboring the H1047R mutation
T1 sequence (P42336 whole entry H1047R, the tested form may be a part): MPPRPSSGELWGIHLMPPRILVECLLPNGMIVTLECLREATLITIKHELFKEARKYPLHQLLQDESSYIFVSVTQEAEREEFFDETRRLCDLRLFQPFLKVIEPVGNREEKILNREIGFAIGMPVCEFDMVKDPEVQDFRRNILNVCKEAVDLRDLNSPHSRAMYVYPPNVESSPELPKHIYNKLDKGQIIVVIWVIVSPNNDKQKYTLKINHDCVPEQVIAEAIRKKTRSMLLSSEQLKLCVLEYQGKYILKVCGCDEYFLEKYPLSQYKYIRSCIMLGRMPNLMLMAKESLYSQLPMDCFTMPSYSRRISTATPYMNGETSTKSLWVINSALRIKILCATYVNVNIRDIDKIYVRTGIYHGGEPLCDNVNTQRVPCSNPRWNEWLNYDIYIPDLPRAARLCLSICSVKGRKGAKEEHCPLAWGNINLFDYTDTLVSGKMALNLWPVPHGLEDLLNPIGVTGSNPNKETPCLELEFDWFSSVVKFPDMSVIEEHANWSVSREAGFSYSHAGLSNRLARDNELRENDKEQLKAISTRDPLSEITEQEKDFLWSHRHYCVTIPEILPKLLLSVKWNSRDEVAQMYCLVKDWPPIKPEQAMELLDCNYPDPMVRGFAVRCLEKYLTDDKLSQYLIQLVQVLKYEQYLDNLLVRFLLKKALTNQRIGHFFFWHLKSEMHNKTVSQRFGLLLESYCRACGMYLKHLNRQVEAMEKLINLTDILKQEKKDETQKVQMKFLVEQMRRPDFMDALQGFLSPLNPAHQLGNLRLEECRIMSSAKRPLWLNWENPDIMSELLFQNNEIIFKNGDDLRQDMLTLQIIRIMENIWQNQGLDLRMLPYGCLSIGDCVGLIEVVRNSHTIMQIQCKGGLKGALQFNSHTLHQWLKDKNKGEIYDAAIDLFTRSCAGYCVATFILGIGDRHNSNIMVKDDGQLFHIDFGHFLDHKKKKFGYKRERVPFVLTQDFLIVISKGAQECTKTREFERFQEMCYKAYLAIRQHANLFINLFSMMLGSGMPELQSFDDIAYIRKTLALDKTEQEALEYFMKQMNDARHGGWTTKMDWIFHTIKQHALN
T1 sequence (P27986 322-694 partner limits assumed): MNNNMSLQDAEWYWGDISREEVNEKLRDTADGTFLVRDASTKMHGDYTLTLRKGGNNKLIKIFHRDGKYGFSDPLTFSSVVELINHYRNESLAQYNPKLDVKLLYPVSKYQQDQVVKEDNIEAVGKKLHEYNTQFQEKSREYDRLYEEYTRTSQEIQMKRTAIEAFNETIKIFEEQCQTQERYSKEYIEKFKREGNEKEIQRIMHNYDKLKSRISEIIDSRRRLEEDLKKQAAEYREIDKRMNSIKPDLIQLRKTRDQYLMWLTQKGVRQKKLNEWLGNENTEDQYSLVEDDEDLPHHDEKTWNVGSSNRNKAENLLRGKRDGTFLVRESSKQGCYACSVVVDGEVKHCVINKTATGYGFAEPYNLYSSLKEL
Protocol: Surface Plasmon Resonance (SPR)
SPR experiments were performed on a Biacore 8K instrument. A biotinylated recombinant PI3Kα H1047R protein was used in this study. The protein contained a full-length p110-α subunit harboring the H1047R mutation with an N-terminal AviTag, complexed with a truncated p85-α subunit (amino acid residues 322-694). The protein was first incubated with 1 μM wortmannin for 30 min at RT to covalently block the ATP binding site, then immobilized onto a streptavidin sensor chip by flowing the protein through the sensor chip at typically 20 μg/mL concentration and 2 μL/min flow rate for 1200 seconds. Compound binding affinities were measured in the multi-cycle kinetics mode, at 90 μL/min flow rate with 90 seconds association time and 240 seconds dissociation time. The running buffer contained 50 mM Tris, pH 7.5, 150 mM NaCl, 0.01% Brij35, 1 mM DTT, 1 mM MgCl2, 0.05% Tween-20 and 2% DMSO. Temperature was maintained at 25° C. during experiments.

[3] = Homo sapiens, T47D, 1 h, read-out: T47D pAKT IC50 (nM), T47D.1 cells, pAKT (S473) HTRF, 1 hour
[4] = read-out: T47D pAKT IC50, T47D.1 cells, pAKT (S473) HTRF, 1 hour

Row | SMILES | IC50 [1, 3] [nM] | Kd [2] [nM] | IC50 [1, 4] [nM]
1 | Cc1c([C@@H](NC(=O)Nc2cnc(N)nc2)C(C)C)oc2c(F)cc(F)cc12 [Compound 75, (S)-1-(2-aminopyrimidin-5-yl)-3-(1-(5,7-difluoro-3-methylbenzofuran-2-yl)-2-methylpropyl)urea] | < 1000 | < 100 | 
2 | CC(C)C(NC(=O)Nc1cccc(C(N)=O)c1)c1cc2cc(F)ccc2o1 (racemic) [Compound 50, 3-(3-(1-(5-fluorobenzofuran-2-yl)-2-methylpropyl)ureido)benzamide] | > 5000 | 100 to 250 | 
3 | Cc1c([C@@H](NC(=O)Nc2cnc(N)nc2)C(C)C)oc2ccc(F)cc12 [Compound 39, (S)-1-(2-aminopyrimidin-5-yl)-3-(1-(5-fluoro-3-methylbenzofuran-2-yl)-2-methylpropyl)urea] | < 1000 | < 100 | 
4 | Cc1c([C@@H](NC(=O)Nc2cccc(S(C)(=N)=O)c2)C(C)C)oc2ccc(F)cc12 (stereo partly drawn) [Compound 28, 1-((S)-1-(5-fluoro-3-methylbenzofuran-2-yl)-2-methylpropyl)-3-(3-(S-methylsulfonimidoyl)phenyl)urea] |  | 100 to 250 | 
5 | Cc1c([C@@H](NC(=O)Nc2cnc(N3CC(F)(F)C3)nc2)C(C)C)oc2ccc(F)cc12 [Compound 72, (S)-1-(2-(3,3-difluoroazetidin-1-yl)pyrimidin-5-yl)-3-(1-(5-fluoro-3-methylbenzofuran-2-yl)-2-methylpropyl)urea] | < 1000 | < 100 | 
6 | Cc1c([C@@H](NC(=O)Nc2cnc(C(=O)N(C)C)nc2)C(C)C)oc2ccc(F)cc12 [Compound 59, (S)-5-(3-(1-(5-fluoro-3-methylbenzofuran-2-yl)-2-methylpropyl)ureido)-N,N-dimethylpyrimidine-2-carboxamide] | < 1000 | 100 to 250 | 
7 | Cc1c([C@@H](NC(=O)Nc2cncc(C#N)c2)C2CC2)oc2ccc(F)cc12 [Compound 46, (S)-1-(5-cyanopyridin-3-yl)-3-(cyclopropyl(5-fluoro-3-methylbenzofuran-2-yl)methyl)urea] |  | ≥ 500 | 
8 | Cc1c([C@@H](NC(=O)N[C@@H]2CCCS(=O)(=O)C2)C(C)C)oc2ccc(F)cc12 [Compound 43, 1-((R)-1,1-dioxidotetrahydro-2H-thiopyran-3-yl)-3-((S)-1-(5-fluoro-3-methylbenzofuran-2-yl)-2-methylpropyl)urea] | 1000 to 5000 | 100 to 250 | 
9 | CNC(=O)c1cccc(NC(=O)N[C@H](c2oc3ccc(F)cc3c2C)C(C)C)c1 [Compound 23, (S)-3-(3-(1-(5-fluoro-3-methylbenzofuran-2-yl)-2-methylpropyl)ureido)-N-methylbenzamide] | 1000 to 5000 | 250 to 500 | 
10 | Cc1c([C@@H](NC(=O)Nc2cncc(C(N)=O)c2)C2CC2)oc2ccc(F)cc12 [Compound 45, (S)-5-(3-(cyclopropyl(5-fluoro-3-methylbenzofuran-2-yl)methyl)ureido)nicotinamide] | 1000 to 5000 | 100 to 250 | 
11 | Cc1c([C@@H](NC(=O)Nc2cnc(N3CC(F)C3)nc2)C(C)C)oc2ccc(F)cc12 [Compound 73, (S)-1-(1-(5-fluoro-3-methylbenzofuran-2-yl)-2-methylpropyl)-3-(2-(3-fluoroazetidin-1-yl)pyrimidin-5-yl)urea] | < 1000 | < 100 | 
12 | CNS(=O)(=O)c1ccc(NC(=O)NC(C)c2oc3ccc(F)cc3c2C)cc1 (single isomer, unassigned) [Compound 14] |  | ≥ 500 | 
13 | Cc1c([C@@H](NC(=O)Nc2ccc(C(N)=O)cc2)C(C)C)oc2ccc(F)cc12 (single isomer, unassigned) [Compound 21] |  | 100 to 250 | 
14 | Cc1c([C@@H](NC(=O)N[C@H]2CC[C@H](O)CC2)C(C)C)oc2ccc(F)cc12 [Compound 6, 1-((S)-1-(5-fluoro-3-methylbenzofuran-2-yl)-2-methylpropyl)-3-((1r,4S)-4-hydroxycyclohexyl)urea] |  | 250 to 500 | 
15 | Cc1c([C@@H](C)NC(=O)Nc2ccc(C(N)=O)cc2)oc2ccc(F)cc12 [Compound 4, (R)-4-(3-(1-(5-fluoro-3-methylbenzofuran-2-yl)ethyl)ureido)benzamide] |  | ≥ 500 | 
16 | Cc1c([C@@H](NC(=O)N[C@H]2CC[C@H](O)CC2)C(C)C)oc2cccc(F)c12 [Compound 7, 1-((S)-1-(4-fluoro-3-methylbenzofuran-2-yl)-2-methylpropyl)-3-((1r, 4S)-4-hydroxycyclohexyl)urea] |  | ≥ 500 | 
17 | Cc1c([C@@H](NC(=O)N[C@@H]2CCCN(S(C)(=O)=O)C2)C(C)C)oc2ccc(F)cc12 (single isomer, unassigned) [Compound 19] |  | ≥ 500 | 
18 | Cc1c([C@@H](NC(=O)Nc2ccc(S(C)(=O)=O)cc2)C(C)C)oc2ccccc12 [Compound 9, (S)-1-(2-methyl-1-(3-methylbenzofuran-2-yl)propyl)-3-(4-(methylsulfonyl)phenyl)urea] |  | 250 to 500 | 
19 | Cc1c([C@@H](NC(=O)Nc2cccc(S(N)(=O)=O)c2)C(C)C)oc2ccc(F)cc12 [Compound 17, (S)-3-(3-(1-(5-fluoro-3-methylbenzofuran-2-yl)-2-methylpropyl)ureido)benzenesulfonamide] |  | 250 to 500 | 
20 | Cc1c([C@@H](NC(=O)N[C@H]2CC[C@H](C(N)=O)CC2)C(C)C)oc2ccc(F)cc12 (relative stereo) [Compound 42, (1R,4r)-4-(3-((R*)-1-(5-fluoro-3-methylbenzofuran-2-yl)-2-methylpropyl)ureido)cyclohexane-1-carboxamide] |  | ≥ 500 | 
21 | Cc1c(C(NC(=O)Nc2ccc(S(C)(=O)=O)cc2)C(C)C)oc2ccc(F)cc12 (single isomer, unassigned) [Compound 11] |  | 100 to 250 | 
22 | Cc1c([C@@H](NC(=O)Nc2ccc(S(C)(=O)=O)cc2)C2CC2)oc2ccc(F)cc12 [Compound 16, (S)-1-(cyclopropyl(5-fluoro-3-methylbenzofuran-2-yl)methyl)-3-(4-(methylsulfonyl)phenyl)urea] |  | ≥ 500 | 
23 | COC(=O)N1CCC[C@H](NC(=O)N[C@H](c2oc3ccc(F)cc3c2C)C(C)C)C1 [Compound 55, methyl (S)-3-(3-((S)-1-(5-fluoro-3-methylbenzofuran-2-yl)-2-methylpropyl)ureido)piperidine-1-carboxylate] |  | ≥ 500 | 
24 | Cc1c(C(NC(=O)Nc2cnc(N)nc2)C(F)(F)F)oc2c(C#N)cc(F)cc12 (single isomer, unassigned) [Compound 220, 1-(2-aminopyrimidin-5-yl)-3-[1-(7-cyano-5-fluoro-3-methyl-1-benzofuran-2-yl)-2,2,2-trifluoroethyl]urea] |  |  | < 1000
25 | Cc1c([C@@H](NC(=O)Nc2cnc(N3C[C@H](O)[C@H]3C)nc2)C(F)(F)F)oc2ccc(F)cc12 [Compound 169] | < 1000 |  | 
26 | Cc1c(C(NC(=O)Nc2cnc(N)nc2)C(F)(F)F)oc2c(Cl)cc(F)cc12 (racemic) [Compound 177, 1-(2-aminopyrimidin-5-yl)-3-[1-(7-chloro-5-fluoro-3-methyl-1-benzofuran-2-yl)-2,2,2-trifluoroethyl] urea] |  |  | > 5000
27 | Cc1c([C@@H](NC(=O)Nc2ncc(N)cn2)C(C)(C)C)oc2ccc(F)cc12 [Compound 86, (S)-1-(5-aminopyrimidin-2-yl)-3-(1-(5-fluoro-3-methylbenzofuran-2-yl)-2,2-dimethylpropyl)urea] | < 1000 |  | 
28 | Cc1c([C@@H](NC(=O)Nc2cnc(NC[C@@H](C)O)nc2)C(C)C)oc2ccc(F)cc12 [Compound 143] | < 1000 |  | 
